Data from US12655116B2, “Substituted isophthalic acid diamides” (Bayer Aktiengesellschaft, priority 2020, dated 2026).

Tests used:
MATIN [1] = test: Pre-emergence herbicidal action against MATIN; type: in vivo, Matricaria inodora
Procedure, shortened: (§1)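 Pre-emergence soil-surface spray of formulated compound (WP or EC; 600 to 800 l/ha; 0.2% wetting agent) over seeds sown in sandy loam. After 3 weeks under greenhouse conditions, damage is estimated visually in percent against untreated plants.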

VIOTR [2] = test: Post-emergence herbicidal action against VIOTR; type: in vivo, Viola tricolor
Procedure, shortened: (§2)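 Spray, one-leaf stage: WP or EC compound in water, 600–800 l/ha, 0.2% wetting agent. Plants held about 3 weeks in the greenhouse, then visually rated in percent of kill compared with untreated controls.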

AVEFA [3] = test: Pre-emergence herbicidal action against AVEFA; type: in vivo, Avena fatua; details: Avena fatua, 504 h; 80 g/ha, pre-emergence
Procedure, shortened: as §1

ECHCG [4] = test: Pre-emergence herbicidal action against ECHCG; type: in vivo, Echinochloa crus-galli
Procedure, shortened: as §1

AMARE [5] = test: Pre-emergence herbicidal action against AMARE; type: in vivo, Amaranthus retroflexus
Procedure, shortened: as §1

VERPE [6] = test: Post-emergence herbicidal action against VERPE; type: in vivo, Veronica persica; details: 20 g/ha
Procedure, shortened: as §2

ABUTH [7] = test: Pre-emergence herbicidal action against ABUTH; type: in vivo, Abutilon theophrasti
Procedure, shortened: as §1

PHBPU = test: Post-emergence herbicidal action against PHBPU; type: in vivo, Pharbitis purpurea
Procedure, shortened: as §2

SETVI [8] = test: Pre-emergence herbicidal action against SETVI; type: in vivo, Setaria viridis; details: dosage 80 g/ha
Procedure, shortened: as §1

ALOMY [9] = test: Pre-emergence herbicidal action against ALOMY; type: in vivo, Alopecurus myosuroides; details: Alopecurus myosuroides, 504 h, pre-emergence
Procedure, shortened: as §1

AVEFA [10] = test: Post-emergence herbicidal action against AVEFA; type: in vivo, Avena fatua; details: 20 g/ha, visual assessment about 3 weeks after treatment, 100% = plants have died, 0% = like control plants
Procedure, shortened: as §2

SETVI [11] = test: Post-emergence herbicidal action against SETVI; type: in vivo, Setaria viridis; details: dosage 20 g/ha
Procedure, shortened: as §2

POLCO = test: Pre-emergence herbicidal action against POLCO; type: in vivo, Polygonum convolvulus; details: dosage 80 g/ha
Procedure, shortened: as §1

AMARE [12] = test: Post-emergence herbicidal action against AMARE; type: in vivo, Amaranthus retroflexus; details: 20 g/ha, visual assessment about 3 weeks after treatment, 100% = plants have died, 0% = like control plants
Procedure, shortened: as §2

ALOMY [13] = test: Post-emergence herbicidal action against ALOMY; type: in vivo, Alopecurus myosuroides; details: dosage 20 g/ha, visual assessment about 3 weeks after treatment vs untreated controls
Procedure, shortened: as §2

ABUTH [14] = test: Post-emergence herbicidal action against ABUTH; type: in vivo, Abutilon theophrasti; details: visual assessment about 3 weeks after treatment vs untreated controls
Procedure, shortened: as §2

ECHCG [15] = test: Post-emergence herbicidal action against ECHCG; type: in vivo, Echinochloa crus-galli; details: dosage 20 g/ha
Procedure, shortened: as §2

MATIN [16] = test: Post-emergence herbicidal action against MATIN; type: in vivo, Matricaria inodora
Procedure, shortened: as §2

VIOTR [17] = test: Pre-emergence herbicidal action against VIOTR; type: in vivo, Viola tricolor
Procedure, shortened: as §1

VERPE [18] = test: Pre-emergence herbicidal action against VERPE; type: in vivo, Veronica persica; details: dosage 80 g/ha
Procedure, shortened: as §1

[19] = Tripleurospermum inodorum, 504 h, dosage 20 g/ha
[20] = 80 g/ha, scored visually after 3 weeks vs untreated controls (100% = plants have died, 0% = like control plants)

With `CCn1nnnc1NC(=O)c1ccc(C(F)(F)F)c(C(=O)NC2CC2)c1SC` [Example 2-83] the pest or weed control at 20 g/ha (MATIN [1]; [19]) was 100%, the pest or weed control at 80 g/ha (MATIN [1]; Tripleurospermum inodorum, 504 h, dosage 80 g/ha) was 100% and the pest or weed control at 5 g/ha (VIOTR [2]; Viola tricolor, 504 h, 5 g/ha) was 80%. The pest or weed control at 20 g/ha (VIOTR [2]; Viola tricolor, 504 h, 20 g/ha) was 80%, the pest or weed control at 80 g/ha (AVEFA [3]) was 90% and the pest or weed control at 80 g/ha (ECHCG [4]; Echinochloa crus-galli, 504 h, 80 g/ha) was 90%. It also gave a pest or weed control at 20 g/ha (AMARE [5]; Amaranthus retroflexus, 504 h, 20 g/ha, scored visually after 3 weeks vs untreated controls, 100% = plants have died, 0% = like control plants) of 100%, a pest or weed control at 80 g/ha (AMARE [5]; Amaranthus retroflexus, 504 h, 80 g/ha, scored visually after 3 weeks vs untreated controls, 100% = plants have died, 0% = like control plants) of 100% and a pest or weed control at 20 g/ha (VERPE [6]; Veronica persica, 504 h) of 80%. For the same molecule, the pest or weed control at 80 g/ha (ABUTH [7]; Abutilon theophrasti, 504 h, 80 g/ha, scored visually after 3 weeks vs untreated controls (100% = plants have died, 0% = like control plants)) was 100%, the pest or weed control at 20 g/ha (ABUTH [7]; Abutilon theophrasti, 504 h, dosage 20 g/ha, scored visually after 3 weeks vs untreated controls, 100% = plants have died, 0% = like control plants, read-out: Pre-emergence action against ABUTH (herbicidal activity in percent)) was 100% and the pest or weed control at 20 g/ha (PHBPU; Ipomoea purpurea, 504 h, dosage 20 g/ha) was 80%. It also gave a pest or weed control at 80 g/ha (SETVI [8]; Setaria viridis, 504 h) of 100%, a pest or weed control at 80 g/ha (ALOMY [9]; [20]) of 90% and a pest or weed control at 20 g/ha (ALOMY [9]; 20 g/ha, scored visually after 3 weeks, 100% = plants have died, 0% = like control plants) of 90%. The pest or weed control at 20 g/ha (AVEFA [10]; Avena fatua, 504 h) was 90%, the pest or weed control at 20 g/ha (SETVI [11]; Setaria viridis, 504 h) was 100% and the pest or weed control at 80 g/ha (POLCO; Fallopia convolvulus, 504 h) was 90%. The pest or weed control at 20 g/ha (AMARE [12]; Amaranthus retroflexus, 504 h) was 100%, the pest or weed control at 20 g/ha (ALOMY [13]; Alopecurus myosuroides, 504 h) was 100% and the pest or weed control at 5 g/ha (ABUTH [14]; Abutilon theophrasti, 504 h, dosage 5 g/ha) was 90%. The pest or weed control at 20 g/ha (ABUTH [14]; Abutilon theophrasti, 504 h, dosage 20 g/ha) was 90%, the pest or weed control at 20 g/ha (ECHCG [15]; Echinochloa crus-galli, 504 h) was 90% and the pest or weed control at 5 g/ha (MATIN [16]; Tripleurospermum inodorum, 504 h, dosage 5 g/ha) was 80%. For the same molecule, the pest or weed control at 20 g/ha (MATIN [16]; [19]) was 100% and the pest or weed control at 80 g/ha (VIOTR [17]; Viola tricolor, 504 h, dosage 80 g/ha) was 100%.

For `CCn1nnnc1NC(=O)c1ccc(C(F)(F)F)c(C(=O)NC(C)C2CC2)c1SC` (stereo not shown) [Example 2-350], the “Pre-emergence action against MATIN in %” value (MATIN [1]; dosage 20 g/ha) was 100%, the “Pre-emergence action against MATIN in %” value (MATIN [1]; dosage 80 g/ha) was 100% and the “Post-emergence action against VIOTR in %” value (VIOTR [2]; 5 g/ha) was 100%. The “Post-emergence action against VIOTR in %” value (VIOTR [2]; 20 g/ha) was 100%, the “Pre-emergence action against ECHCG in %” value (ECHCG [4]; 20 g/ha) was 80% and the “Pre-emergence action against ECHCG in %” value (ECHCG [4]; 80 g/ha) was 100%. The “Pre-emergence action against AMARE in %” value (AMARE [5]; 20 g/ha, scored visually after 3 weeks vs untreated controls, 100% = plants have died, 0% = like control plants) was 100%, the “Pre-emergence action against AMARE in %” value (AMARE [5]; [20]) was 100% and the “Post-emergence action against VERPE in %” value (VERPE [6]) was 80%. For the same molecule, the “Pre-emergence action against ABUTH (herbicidal activity)” value (ABUTH [7]; [20]) was 100%, the “Pre-emergence action against ABUTH (herbicidal activity in percent)” value (ABUTH [7]; dosage 20 g/ha, scored visually after 3 weeks vs untreated controls, 100% = plants have died, 0% = like control plants) was 100% and the “Post-emergence action against PHBPU in %” value (PHBPU; dosage 5 g/ha) was 80%. The “Post-emergence action against PHBPU in %” value (PHBPU; dosage 20 g/ha) was 80%, the “Pre-emergence action against SETVI in %” value (SETVI [8]) was 100% and the “Post-emergence action at 20 g/ha against AVEFA in %” value (AVEFA [10]) was 90%. For the same molecule, the “Post-emergence action against SETVI in %” value (SETVI [11]) was 100%, the “Pre-emergence action against VERPE in %” value (VERPE [18]) was 100% and the “Pre-emergence action against POLCO in %” value (POLCO) was 100%. The “Post-emergence action at 20 g/ha against AMARE in %” value (AMARE [12]) was 100%, the “Post-emergence action against ALOMY in %” value (ALOMY [13]) was 80% and the “Post-emergence action against ABUTH in %” value (ABUTH [14]; dosage 20 g/ha) was 80%. For the same molecule, the “Post-emergence action against ECHCG in %” value (ECHCG [15]) was 100%, the “Post-emergence action against MATIN in %” value (MATIN [16]; dosage 5 g/ha) was 80% and the “Post-emergence action against MATIN in %” value (MATIN [16]; dosage 20 g/ha) was 90%. The “Pre-emergence action against VIOTR in %” value (VIOTR [17]; dosage 20 g/ha) was 100% and the “Pre-emergence action against VIOTR in %” value (VIOTR [17]; dosage 80 g/ha) was 100%.
